Results published in the NIST ThermoML archive (doi:10.1021/je049655w).
Several values for one entry are separate records, joined by “and”; a condition that tells them apart may be missing. Equal values may be shown once.

Tests used:
[1] = 100.8 kPa, Liquid
[2] = refractive index (Na D-line) (dimensionless); conditions: 298.15 K; 101.33 kPa; Liquid; Standard Abbe refractometry
[3] = xn = mol fraction of the nth substance listed; conditions: 100.8 kPa, Liquid

CC(C)CC(C)(C)C [2,2,4-trimethylpentane]
[1]
Conditions	mass density [kg/m3]	viscosity
298.15 K	687.8	0.474 mPa·s
308.15 K	679.5	0.422 mPa·s and 0.426 mPa·s
318.15 K	671	0.382 mPa·s

Conditions	refractive index
[2]	1.38902

CC(C)CC(C)(C)C [2,2,4-trimethylpentane] + CCC(C)=O
[3], x2 = 0
Conditions	mass density [kg/m3]	viscosity [mPa·s]
298.15 K	687.8	0.474
308.15 K	679.5	0.426
318.15 K	671	0.382

CC(C)CC(C)(C)C [2,2,4-trimethylpentane] + CCO
[3]
Conditions	mass density, 298.15 K [kg/m3]	mass density, 308.15 K [kg/m3]	mass density, 318.15 K [kg/m3]	viscosity, 298.15 K [mPa·s]	viscosity, 308.15 K [mPa·s]	viscosity, 318.15 K [mPa·s]
x2 = 0	687.8	679.5	671	0.474	0.422	0.382
x2 = 0.05	688.8	680.4	671.7	0.476	0.424	0.384
x2 = 0.1	690.3	681.8	673	0.478	0.426	0.385
x2 = 0.15	692.1	683.5	674.7	0.48	0.429	0.389
x2 = 0.2	694	685.4	676.5	0.484	0.433	0.391
x2 = 0.25	696.2	687.5	678.6	0.494	0.439	0.397
x2 = 0.3	698.5	689.8	680.9	0.507	0.45	0.404
x2 = 0.35	701.1	692.4	683.4	0.521	0.462	0.412
x2 = 0.4	704	695.2	686.2	0.54	0.474	0.422
x2 = 0.45	707.1	698.3	689.3	0.561	0.487	0.433
x2 = 0.5	710.6	701.8	692.8	0.586	0.506	0.446
x2 = 0.55	714.5	705.7	696.6	0.613	0.527	0.463
x2 = 0.6	718.8	710	700.9	0.643	0.55	0.48
x2 = 0.65	723.6	714.9	705.8	0.678	0.576	0.5
x2 = 0.7	729.1	720.3	711.3	0.718	0.606	0.524
x2 = 0.75	735.4	726.6	717.6	0.76	0.641	0.55
x2 = 0.8	742.3	733.6	724.7	0.806	0.677	0.58
x2 = 0.85	750.5	741.7	732.9	0.861	0.72	0.616
x2 = 0.9	760.1	751.4	742.5	0.929	0.768	0.657
x2 = 0.95	771.5	762.8	753.9	0.999	0.829	0.702

CCC(C)=O [butanone]
[1]
Conditions	mass density [kg/m3]	viscosity [mPa·s]
298.15 K	799.7	0.378
308.15 K	789.2	0.341
318.15 K	778.4	0.307

Conditions	refractive index
[2]	1.37623

CCC(C)=O [butanone] + CC(C)CC(C)(C)C
[3]
Conditions	mass density, 298.15 K [kg/m3]	mass density, 308.15 K [kg/m3]	mass density, 318.15 K [kg/m3]	viscosity, 298.15 K [mPa·s]	viscosity, 308.15 K [mPa·s]	viscosity, 318.15 K [mPa·s]
x1 = 0.05	690.1	681.7	673.1	0.461	0.416	0.374
x1 = 0.1	692.7	684.2	675.4	0.451	0.408	0.367
x1 = 0.15	695.6	687	678.2	0.443	0.4	0.36
x1 = 0.2	698.7	690.1	681.1	0.436	0.394	0.354
x1 = 0.25	702.2	693.4	684.3	0.429	0.388	0.349
x1 = 0.3	705.9	697	687.8	0.423	0.382	0.344
x1 = 0.35	709.9	700.9	691.6	0.417	0.377	0.339
x1 = 0.4	714.1	705.1	695.7	0.412	0.372	0.335
x1 = 0.45	718.7	709.5	700.1	0.407	0.368	0.331
x1 = 0.5	723.6	714.3	704.8	0.402	0.363	0.328
x1 = 0.55	728.8	719.4	709.8	0.398	0.36	0.325
x1 = 0.6	734.5	724.9	715.3	0.394	0.356	0.322
x1 = 0.65	740.6	731	721.2	0.39	0.353	0.32
x1 = 0.7	747.2	737.4	727.5	0.387	0.35	0.317
x1 = 0.75	754.2	744.3	734.3	0.384	0.347	0.315
x1 = 0.8	761.9	751.9	741.7	0.381	0.345	0.313
x1 = 0.85	770.4	760.2	749.9	0.379	0.343	0.311
x1 = 0.9	779.3	769	758.6	0.377	0.342	0.309
x1 = 0.95	789.2	778.8	768.2	0.377	0.341	0.308
x1 = 1	799.7	789.2	778.4	0.378	0.341	0.307

CCC(C)=O [butanone] + CCO
[3]
Conditions	mass density, 298.15 K [kg/m3]	mass density, 308.15 K [kg/m3]	mass density, 318.15 K [kg/m3]	viscosity, 298.15 K [mPa·s]	viscosity, 308.15 K [mPa·s]	viscosity, 318.15 K [mPa·s]
x2 = 0	799.7	789.2	778.4	0.378	0.341	0.307
x2 = 0.05	799.3	788.8	778	0.38	0.345	0.313
x2 = 0.1	798.9	788.3	777.6	0.386	0.349	0.316
x2 = 0.15	798.4	787.9	777.2	0.393	0.353	0.32
x2 = 0.2	797.9	787.4	776.8	0.4	0.359	0.324
x2 = 0.25	797.4	787	776.4	0.409	0.366	0.33
x2 = 0.3	796.9	786.5	776	0.42	0.376	0.337
x2 = 0.35	796.4	786.1	775.6	0.431	0.387	0.345
x2 = 0.4	795.8	785.6	775.2	0.446	0.397	0.355
x2 = 0.45	795.2	785.1	774.7	0.469	0.412	0.365
x2 = 0.5	794.6	784.6	774.3	0.49	0.426	0.381
x2 = 0.55	794	784	773.8	0.512	0.443	0.398
x2 = 0.6	793.3	783.4	773.3	0.539	0.467	0.412
x2 = 0.65	792.6	782.8	772.8	0.576	0.493	0.434
x2 = 0.7	791.8	782.1	772.2	0.618	0.526	0.456
x2 = 0.75	790.9	781.4	771.6	0.673	0.56	0.482
x2 = 0.8	790	780.6	771	0.734	0.601	0.519
x2 = 0.85	788.9	779.7	770.3	0.799	0.654	0.56
x2 = 0.9	787.8	778.7	769.5	0.869	0.722	0.613
x2 = 0.95	786.6	777.7	768.6	0.961	0.803	0.676

CCO [ethanol]
[1]
Conditions	mass density [kg/m3]	viscosity [mPa·s]
298.15 K	785.1	1.088
308.15 K	776.5	0.904
318.15 K	767.7	0.763

Conditions	refractive index
[2]	1.35949

CCO [ethanol] + CC(C)CC(C)(C)C
[3], x1 = 1
Conditions	mass density [kg/m3]	viscosity [mPa·s]
298.15 K	785.1	1.088
308.15 K	776.5	0.904
318.15 K	767.7	0.763

CCO [ethanol] + CCC(C)=O
[3], x1 = 1
Conditions	mass density [kg/m3]	viscosity [mPa·s]
298.15 K	785.1	1.088
308.15 K	776.5	0.904
318.15 K	767.7	0.763
